Laboratory results reported in ChEMBL document CHEMBL4706677, “Design, synthesis, and biological evaluation of 1,3,6,7-tetrahydroxyxanthone derivatives as phosphoglycerate mutase 1 inhibitors” (Bioorg Med Chem Lett, 2021).

Tests used:
[1] = molecular target: Phosphoglycerate mutase 1 (Homo sapiens, UniProt P18669); assay: Inhibition of PGAM1 (unknown origin)
NCI-H1299 = assay: Antiproliferative activity against human NCI-H1299 cells assessed as inhibition of cell proliferation; assay type: functional, cell-based

Sequence of Phosphoglycerate mutase 1 (P18669 whole entry): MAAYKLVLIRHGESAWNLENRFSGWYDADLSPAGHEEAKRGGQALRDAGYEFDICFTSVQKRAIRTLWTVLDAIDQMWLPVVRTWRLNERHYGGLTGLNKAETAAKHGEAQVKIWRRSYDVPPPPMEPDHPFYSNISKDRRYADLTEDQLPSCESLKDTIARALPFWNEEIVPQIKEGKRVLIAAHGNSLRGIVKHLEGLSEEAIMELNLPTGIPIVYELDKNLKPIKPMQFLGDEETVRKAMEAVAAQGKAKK

IC50 [1] [µM] | EC50 (NCI-H1299) [µM] | Compound
> 20 | – | COc1c(OCCN2CCN(C)CC2)cc2oc3cc(OCCN4CCN(C)CC4)c(CC=C(C)C)c(O)c3c(=O)c2c1CC=C(C)C
– | 26.2 | O=C1c2ccccc2C(=O)c2c1cc(S(=O)(=O)Nc1ccc(C(F)(F)F)cc1)c(O)c2O
20 | – | CCCc1c(O)c(O)cc2oc3cc(O)cc(O)c3c(=O)c12
3.4 | 47.7 | CC(C)=CCc1c(O)c(O)cc2oc3cc(O)cc(O)c3c(=O)c12
1.5 | 41.6 | O=c1c2c(O)cc(O)cc2oc2cc(O)c(O)c(CCCc3ccccc3)c12
5.7 | 28.1 | O=c1c2cc(O)c(O)cc2oc2cc(O)cc(OCCCCN3CCc4ccccc43)c12
> 20 | – | CCNC(=O)Oc1cc2oc3cc(OC(=O)NCC)c(OC)c(CC=C(C)C)c3c(=O)c2c(O)c1CC=C(C)C
12.8 | 60 | CCCCOc1cc(O)cc2oc3cc(O)c(O)cc3c(=O)c12
> 20 | – | COc1c(OCCN(C)C)cc2oc3cc(OCCN(C)C)c(CC=C(C)C)c(O)c3c(=O)c2c1CC=C(C)C
> 20 | – | COc1cc(O)c2c(=O)c3c(CCCc4ccccc4)c(O)c(OC)cc3oc2c1
> 20 | – | COc1c(OCC(=O)N(C)C)cc2oc3cc(OCC(=O)N(C)C)c(CC=C(C)C)c(O)c3c(=O)c2c1CC=C(C)C
> 20 | – | COc1c(OCCO)cc2oc3cc(OCCO)c(CC=C(C)C)c(O)c3c(=O)c2c1CC=C(C)C
2.8 | 13.5 | CCCCC=CCc1c(O)c(O)cc2oc3cc(O)cc(O)c3c(=O)c12
> 20 | – | COc1c(OC(=O)NC(C)C)cc2oc3cc(OC(=O)NC(C)C)c(CC=C(C)C)c(O)c3c(=O)c2c1CC=C(C)C
> 20 | – | O=C(CCCOc1cc(O)cc2oc3cc(O)c(O)cc3c(=O)c12)N1CCCCC1
2.8 | 3.4 | CCCCCCCCOc1cc(O)cc2oc3cc(O)c(O)cc3c(=O)c12
7.2 | – | COc1c(O)cc2oc3cc(O)c(CC=C(C)C)c(O)c3c(=O)c2c1CC=C(C)C [MANGOSTIN]
> 20 | – | O=c1c2cc(O)c(O)cc2oc2cc(O)cc(OCCCCN3CCCCC3)c12

Compound | IC50 [1] [µM] | EC50 (NCI-H1299) [µM]
CC(C)=CCc1c(O)cc2oc3cc(O)c(O)c(CC=C(C)C)c3c(=O)c2c1O | 1.9 | 2.2
O=c1c2ccccc2oc2ccccc12 [XANTHONE] | 0.5 | –
